Columns and labels:
[1] = test system: ROS production generated by reverse electron transfer (RET) from Complex II to Complex I; experiment: Reverse electron transfer assay (RET assay) in isolated brain mitochondria; assay type: biochemical, mouse
Experimental: For mitochondria isolation, brains were dissected at a local vivarium (Explora, MA, USA) from C57BL/6 mice that were supplied by The Jackson Laboratory (Maine, USA). Brains were collected on ice in cold mitochondria isolation buffer (225 mM mannitol, 75 mM sucrose, 5 mM HEPES, 1 mM EGTA, pH 7.4). In a glass petri dish, brains were mixed with a few drops of buffer and cut into small pieces resembling a mash using scissors. Mitochondrial isolation buffer was added at 1:10-1:20 (w/v) and tissue mash was transferred to a glass Dounce tissue homogenizer and further homogenized with 10-15 strokes. Mash was centrifuged at 1,000×g for 10 min to pellet and remove cellular debris, etc. Supernatant was transferred into 2.0 mL tubes and centrifuged at 10,000×g. […]
All high-resolution respirometry experiments were conducted using the Oroboros O2k-Fluorespirometer (Oroboros, Innsbruck, Austria). […] Prior to each experiment requiring the fluorescence module, the AmpR calibration protocol from DatLab 7.4 was used to calibrate the fluorescence signal. […]
Reverse electron transfer (RET) was measured using HRR with the Oroboros O2k and DatLab 7.4. […]
Statistical analysis was performed using GraphPad Prism 9. […] RET Assay data were analyzed by 2-way ANOVA using a p-value of 0.05. […]

[2] = test system: rotenone-inhibited Complex I; experiment: Complex I-bypass assay ((CI)-bypass assay), high-resolution respirometry O2 consumption; assay type: cell-based, human; conditions: Leigh (GM03672) fibroblasts, 0.5 μM rotenone, oxygen consumption rate; read-out: EC50 value, Complex I by-pass activity
Experimental: All high-resolution respirometry experiments were conducted using the Oroboros O2k-Fluorespirometer (Oroboros, Innsbruck, Austria). The Oroboros O2k-Fluorespirometer was calibrated daily using the air calibration protocol on DatLab 7.4 (Oroboros, Innsbruck, Austria). Prior to each experiment requiring the fluorescence module, the AmpR calibration protocol from DatLab 7.4 was used to calibrate the fluorescence signal. Initial data analysis, including setting of marks, was performed using DatLab 7.4.
Complex I-bypass activity was assessed using HRR to measure O2 consumption. Briefly, Leigh (GM03672) fibroblasts were harvested with trypsin, pelleted at 300×g centrifugation, and resuspended in prewarmed, complete MEM. Cells were added to each chamber via buffer replacement at a concentration of 1-2 million per mL. The chambers were closed to initiate measurement of O2 consumption. The slope negative signal, which is a derivative of O2 consumption, was allowed to stabilize over the course of several minutes. Using a Hamilton syringe to allow for continuous measurement of O2 consumption, glutamate (10 mM final concentration) and malate (0.1 mM final concentration) were added to the closed chamber through the central capillary of the stopper. The slope negative signal was stabilized for several minutes, and rotenone was added at a final concentration of 0.5 μM. One of Compounds 1 to 4 or Vatiquinone was added at increasing concentrations, allowing for several minutes of stabilization of the slope negative signal between titrations. Marks were set at signal plateaus in between titrations. Values were exported and analyzed using GraphPad Prism 9. […] Responsiveness of cells was confirmed with idebenone.
Statistical analysis was performed using GraphPad Prism 9. Complex I-bypass data were fit using nonlinear sigmoidal 4P fit. RET Assay data were analyzed by 2-way ANOVA using a p-value of 0.05.
The Complex 1-bypass assay ((CI)-bypass Assay) evaluates the capacity of compounds to donate electrons into the electron transport chain (ETC) when Complex I is impaired or otherwise deficient. Normally, electrons feed into the ETC through Complex I. In instances where Complex I is impaired, electrons must enter the ETC downstream of Complex I for oxidative phosphorylation (OXPHOS) to occur. Complex I is composed of 46 subunits, encoded by mitochondrial and nuclear genes. Due to its large size, Complex I mutations are a common cause of ETC dysfunction in mitochondrial diseases. Indeed, mutations in the genes that encode subunits for Complex I are important causes of Leigh and Leigh-like syndrome.
Using this assay, the ability of Compounds 1 to 4 and Vatiquinone to bypass rotenone-inhibited Complex I was determined. Rotenone is a widely used Complex I inhibitor and blocks the transfer of electrons from the iron-sulfur complexes on Complex I to ubiquinone. Thus, when rotenone is introduced to cells underdoing routine respiration, a decrease in oxygen consumption is observed, which is indicative of disrupted OXPHOS. The ability of Compounds 1 to 4 and Vatiquinone to “bypass” Complex I and restore OXPHOS is measured by an increase in oxygen consumption rate following addition of the compound to the chamber.
In executing this assay, in each instance, fibroblasts are added to each chamber of the Oroboros Oxygraph-2K (the “O2k”). The O2k generates two traces: 1) total oxygen consumption over time, 2) the rate of oxygen consumption over time (slope negative). Baseline respiration is established for several minutes by allowing the slope negative to stabilize. Rotenone is introduced to each chamber at a final concentration of 0.5 μM. The addition of rotenone is expected to cause a marked reduction of OXPHOS as measured by a decreased rate of oxygen consumption. Then the test article (i.e., in this case one of Compounds 1 to 4 or Vatiquinone) is added to the chamber. […]

For `CC1=C(C)C(=O)C(CC[C@@](C)(O)COCCC[Si](C)(C)C)=C(C)C1=O` [Compound 3], the H2O2 production ([1]; 2 μM compound prior to succinate (10 mM)) was “statistically significant reduction” and the EC50 [2] was roughly 3.41 µM.

Work on `CC1=C(C)C(=O)C(CC[C@@](C)(O)CC/C=C(\C)CCC=C(F)F)=C(C)C1=O` [Compound 2] yielded an EC50 [2] of roughly 4.09 µM.

`CC1=C(C)C(=O)C(CC[C@](C)(O)CCCCCCCCC(F)(F)F)=C(C)C1=O` [Compound 4] was tested, and the H2O2 production ([1]; either 1 or 2 μM compound prior to succinate (10 mM)) was “statistically significant reduction” and the EC50 [2] was roughly 8.8 µM.
